Values of other authors in patent US20250205258A1 (priority 2022, published 2025).

Experiments:
[1] = tested on: STAT3 signaling pathway; details: by inhibiting the STAT3 signaling pathway; cited from earlier work
[2] = tested on: ovarian cancer cells SK—OV-3; details: concentration- and time-dependent, EGFR/AKT/ERK signaling pathway; cited from earlier work
[3] = tested on: melanoma A375 cells; details: concentration- and time-dependent; cited from earlier work
[4] = tested on: neuroblastoma cells U87; details: through both apoptosis and necrosis; cited from earlier work
[5] = tested on: liver cancer stem cell markers CD133, CD44, and ESA; details: cited from earlier work

Structure (SMILES): C[C@]12CC[C@H](O)C[C@H]1CC[C@@H]1[C@@H]2CC[C@]2(C)[C@@H](c3ccc(=O)oc3)CC[C@]12O [bufalin, Bufalin]
- tumor microenvironment-mediated angiogenesis [1]: suppress tumor microenvironment-mediated angiogenesis
- proliferation of ovarian cancer cells SK—OV-3 [2]: inhibit the proliferation
- proliferation of melanoma A375 cells [3]: inhibits the proliferation
- death of neuroblastoma cells U87 [4]: induces the death
- expression of liver cancer stem cell markers CD133, CD44, and ESA [5]: significantly inhibit
